In US11643417B2, “Tetrahydrobenzofurodiazepinone compound and pharmaceutical use thereof” (priority 2020, dated 2023):

The compounds below were run against human Pim-1 (Homo sapiens (Human), UniProt P11309) (assay: biochemical). Conditions: Ki converted from IC50; purified human Pim-1, Pim2tide substrate, ADP-Glo; read-out: hPim1 Ki.
Format: biochemical
Protocol: The human Pim-1 inhibitory activity of the test compounds was evaluated as follows.
(1) Purification of Human Pim-1
DNA fragment in which a His-Tag sequence and a translation termination sequence are added to the 3′-end of human Pim-1 translation sequence was amplified by PCR (Polymerase Chain Reaction), using human Pim-1 gene-inserted plasmid DNA (Kazusa DNA Laboratory, model number FXC11400) as a template. The amplified DNA fragment was fused with pGEx-6P-1 (GE Healthcare Japan, model number 27-4597-1) digested with BamHI and EcoRI using In-Fusion HD Cloning Kit (Takara Bio, model number 639649). […] The base sequence of Pim-1 cloned into vector was determined by Dye Terminator method using BigDye Terminator v3.1 Cycle Sequencing Kit (Applied Biosystems, model number 4337456). […] Escherichia coli BL21 (DE3) (Merck KGaA, model number 69449-4) transformed with human Pim-1-expressed plasmid DNA was cultured in 2×YT medium (Becton Dickinson, model number 2404020) at 30° C., until the optical concentration at 620 nm (OD620) reached 0.6, and then cultured overnight at 20° C. in the presence of 0.5 mmol/L isopropyl b-D-1-thiogalactopyranoside. After the completion of so the culture, the cells were collected and suspended in Homogenate Buffer (50 mmol/L Tris-HCl (pH 7.5), 500 mmol/L NaCl, 1% Tween20, complete, EDTA-free (Roche, model number 1873580)), and the suspended cells were lysed by passing through a microfluidizer M-110H (Mizuho Kogyo Co., Ltd.). The lysate was centrifuged at 10,100×g for 10 minutes, 4° C., and the supernatant was filtered through MILLEX-HV Filter (0.45 μm) (Millipore, SLHV033RS) to remove the cell residues. The filtrate was loaded onto complete His-Tag Purification Resin (Roche Diagnostics, model number 05 893 682 0.01). The column was washed with Equilibration Buffer-1 (50 mmol/L Tris-HCl (pH 7.5), 500 mmol/L NaCl, 1% Tween 20) containing 5 mmol/L Imidazole, followed by Equilibration Buffer-1 containing 50 mmol/L Imidazole, the human Pim-1 to which GST-Tag derived from pGEx-6P-1 was eluted with Equilibration Buffer-1 containing 150 mmol/L imidazole. […] The protease reaction was carried out by stirring overnight at 4° C., and the human Pim-1 in which the GST-Tag sequence was cleaved was eluted. The eluate was loaded onto a gel filtration column (Superdex-200 […] (GE Healthcare, model number 17-5175-01)) equilibrated with Equilibration Buffer-3 (50 mmol/L Tris-HCl (pH 7.5), 500 mmol/L NaCl, 0.05% Tween20, 0.5 mmol/L EDTA, 2 mmol/L DTT, 10% Glycerol), and eluted. The eluate was used as a human Pim-1 purified fraction.
The protein concentration of the human Pim-1 purified fraction was measured with Pierce 660 nm Protein Assay Reagent (Thermo Fisher Scientific, model number 22660). The purified fraction was rapidly frozen in liquid nitrogen, and then stored at −80° C. The His-Tag-added human Pim-1 was detected by Western blotting using a mouse anti-His monoclonal antibody (WAKO, model number 011-23091).
(2) Evaluation of Human Pim-1 Inhibitory Activity
The calculation of the Pim-1 inhibitory activity of the compound was performed using the following solution according to the protocol attached to ADP-Glo Kinase Assay (cat. V9102, Promega). The purified enzyme of human Pim-1 described above was used.
(i) Preparation of Solution
The kinase buffer solution (50 mmol/L HEPES (pH 7.5), 5 mmol/L MgCl2, 1 mmol/L DTT, 0.05% BSA) was prepared by dissolving HEPES (Jena Bioscience), MgCl2 (Sigma-Aldrich), DTT (Sigma-Aldrich) and BSA (Sigma-Aldrich) in purified water.
The ATP solution (288 μmol/L) was prepared by dissolving 100 mmol/L ATP (Promega) in the kinase buffer solution.

Sequence of human Pim-1 (P11309 whole entry): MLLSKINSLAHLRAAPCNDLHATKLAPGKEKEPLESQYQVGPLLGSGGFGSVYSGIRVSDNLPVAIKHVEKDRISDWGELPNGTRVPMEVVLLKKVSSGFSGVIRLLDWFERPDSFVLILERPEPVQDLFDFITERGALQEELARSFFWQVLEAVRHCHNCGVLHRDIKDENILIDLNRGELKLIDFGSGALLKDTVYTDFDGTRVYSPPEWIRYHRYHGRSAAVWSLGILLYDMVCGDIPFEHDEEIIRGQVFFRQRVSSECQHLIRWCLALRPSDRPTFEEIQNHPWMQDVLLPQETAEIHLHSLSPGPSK

| Ki | Structure (SMILES) |
| --- | --- |
| 0.468 nM | N#CC1(CCO)CCOC(CCN2CCNC(=O)c3oc4ccc(C(F)(F)F)cc4c32)C1 (racemic) [Example 7] |
| 0.848 nM | COC(C1CC(O)(CO)C1)C1(CN2CCNC(=O)c3oc4ccc(C(F)(F)F)cc4c32)CC1 (racemic) [Example 22] |
| 0.805 nM | COC(C1CC(O)(CO)C1)C1(CN2CCNC(=O)c3oc4ccc(C(F)(F)F)cc4c32)CC1 (racemic) [Example 23] |
| 0.0715 nM | O=C1NCCN(CC(F)(F)C2CC3(CCO2)OCCO3)c2c1oc1ccc(C(F)(F)F)cc21 (racemic) [Example 46] |
| 0.115 nM | O=C1NCCN(CC(F)(F)C2CC3(CCC2(F)F)OCCO3)c2c1oc1ccc(C(F)(F)F)cc21 (racemic) [Example 55] |
| 0.0448 nM | O=C1NCCN(CC(F)(F)C2CC3(CCO2)COC3)c2c1oc1ccc(C(F)(F)F)cc21 (racemic) [Example 57] |
| 0.0391 nM | O=C1CCC(F)(F)C(C(F)(F)CN2CCNC(=O)c3oc4ccc(C(F)(F)F)cc4c32)C1 (racemic) [Example 61] |
| 0.399 nM | O=C1NCCN(CCC2COCCO2)c2c1oc1c(F)cc(C(F)(F)F)cc21 (racemic) [Example 76] |
| 0.708 nM | CC1COCC(CCN2CCNC(=O)c3oc4ccc(C(F)(F)F)cc4c32)O1 (racemic) [Example 114] |
| 0.672 nM | CC1COCC(CCN2CCNC(=O)c3oc4ccc(C(F)(F)F)cc4c32)O1 (racemic) [Example 115] |
| 1.18 nM | N#CC[C@H]1CO[C@H](CCN2CCNC(=O)c3oc4ccc(C(F)(F)F)cc4c32)CO1 (racemic) [Example 129] |
| 1.16 nM | CS(=O)(=O)C[C@H]1CO[C@H](CCN2CCNC(=O)c3oc4ccc(C(F)(F)F)cc4c32)CO1 (racemic) [Example 130] |
| 3.59 nM | O=C1NCCN(CCC2COCC(CO)O2)c2c1oc1ccc(C(F)(F)F)cc21 (racemic) [Example 132] |
| 1.58 nM | O=C1NCCN(CCC2COCC(CO)O2)c2c1oc1ccc(C(F)(F)F)cc21 (racemic) [Example 133] |
| 0.753 nM | O=C1NCCN(CCC2COCC(CF)O2)c2c1oc1ccc(C(F)(F)F)cc21 (racemic) [Example 134] |
| 0.66 nM | O=C1NCCN(CCC2COCC(CF)O2)c2c1oc1ccc(C(F)(F)F)cc21 (racemic) [Example 135] |

| Ki | Structure (SMILES) |
| --- | --- |
| 16 nM | CS(=O)(=O)CC1COCC(CCN2CCNC(=O)c3oc4ccc(C(F)(F)F)cc4c32)O1 (racemic) [Example 136] |
| 5.36 nM | CS(=O)(=O)CC1COCC(CCN2CCNC(=O)c3oc4ccc(C(F)(F)F)cc4c32)O1 (racemic) [Example 137] |
| 3.69 nM | N#CCC1COCC(CCN2CCNC(=O)c3oc4ccc(C(F)(F)F)cc4c32)O1 (racemic) [Example 139] |
| 5.8 nM | N#CCC1COCC(CCN2CCNC(=O)c3oc4ccc(C(F)(F)F)cc4c32)O1 (racemic) [Example 140] |
| 10.3 nM | CS(=O)(=O)C[C@H]1CO[C@@H](CCN2CCNC(=O)c3oc4ccc(C(F)(F)F)cc4c32)CO1 (racemic) [Example 141] |
| 4.4 nM | N#CC[C@H]1CO[C@@H](CCN2CCNC(=O)c3oc4ccc(C(F)(F)F)cc4c32)CO1 (racemic) [Example 142] |
| 0.947 nM | O=C1NCCN(CCC2CC3(CC(CO)C3)C2)c2c1oc1ccc(C(F)(F)F)cc21 (racemic) [Example 143] |
| 0.104 nM | O=C1NCCN(CC(F)(F)C2CC(O)(C(F)F)CCO2)c2c1oc1ccc(C(F)(F)F)cc21 (single isomer, unassigned) [Example 52] |
| 0.0921 nM | O=C1NCCN(CC(F)(F)C2CC(O)(C(F)F)CCO2)c2c1oc1ccc(C(F)(F)F)cc21 (single isomer, unassigned) [Example 53] |
| 0.127 nM | O=C1NCCN(CCC2CCC(O)(C(F)(F)CO)CC2)c2c1oc1ccc(C(F)(F)F)cc21 (single isomer, unassigned) [Example 118] |
| 0.144 nM | O=C1NCCN(CCC2CCC(O)(C(F)(F)CO)CC2)c2c1oc1ccc(C(F)(F)F)cc21 (single isomer, unassigned) [Example 119] |
| 0.0532 nM | CC1(O)CCC(CCN2CC3(CC3)NC(=O)c3oc4ccc(C(F)(F)F)cc4c32)CC1 (single isomer, unassigned) [Example 127] |
| 0.031 nM | CC1(O)CCC(CCN2CC3(CC3)NC(=O)c3oc4ccc(C(F)(F)F)cc4c32)CC1 (single isomer, unassigned) [Example 128] |
| 0.213 nM | CC1(O)CCC(C(F)(F)CN2CCNC(=O)c3oc4ccc(C(F)(F)F)cc4c32)CC1 (single isomer, unassigned) [Example 147] |
| 0.114 nM | CC1(O)CCC(C(F)(F)CN2CCNC(=O)c3oc4ccc(C(F)(F)F)cc4c32)CC1 (single isomer, unassigned) [Example 148] |

| Structure (SMILES) | Ki |
| --- | --- |
| O=C1NCCN(CC(F)(F)C2COCCO2)c2c1oc1ccc(C(F)(F)F)cc21 (single isomer, unassigned) [Example 68] | 0.0461 nM |
| O=C1NCCN(CC(F)(F)C2COCCO2)c2c1oc1ccc(C(F)(F)F)cc21 (single isomer, unassigned) [Example 70] | 0.0734 nM |
| O=C1NCCN(CCC2CC(O)CCO2)c2c1oc1ccc(C(F)(F)F)cc21 (centres unmarked) [Example 1] | 0.697 nM |
| CC1(C)OC[C@]2(CC[C@H](CCN3CCNC(=O)c4oc5ccc(C(F)(F)F)cc5c43)CC2)O1 [Example 2-01] | 1.6 nM |
| O=C1OC[C@]2(CC[C@H](CCN3CCNC(=O)c4oc5ccc(C(F)(F)F)cc5c43)CC2)O1 [Example 2-02] | 0.43 nM |
| CN1CCN(CC[C@H]2CC[C@](O)(CO)CC2)c2c(oc3ccc(C(F)(F)F)cc23)C1=O [Example 2-03] | 0.414 nM |
| COC[C@]1(OC)CC[C@@H](CCN2CCNC(=O)c3oc4ccc(C(F)(F)F)cc4c32)CC1 [Example 2-04] | 1.25 nM |
| COC[C@]1(OC)CC[C@@H](CCN2CCN(C)C(=O)c3oc4ccc(C(F)(F)F)cc4c32)CC1 [Example 2-05] | 13.2 nM |
| C[C@H]1CN(CC[C@H]2CC[C@](O)(CO)CC2)c2c(oc3ccc(C(F)(F)F)cc23)C(=O)N1 [Example 2-06] | 0.074 nM |
| C[C@@H]1CN(CC[C@H]2CC[C@](O)(CO)CC2)c2c(oc3ccc(C(F)(F)F)cc23)C(=O)N1 [Example 2-07] | 0.136 nM |

Same assay, conditions: hPim1 Ki (nM), Ki converted from IC50; purified human Pim-1, Pim2tide substrate, ADP-Glo

| Structure (SMILES) | Ki |
| --- | --- |
| CC1(O)CCOC(C(F)(F)CN2CCNC(=O)c3oc4ccc(C(F)(F)F)cc4c32)C1 (racemic) [Example 11, 1-(2,2-difluoro-2-(4-hydroxy-4-methyltetrahydro-2H-pyran-2-yl)ethyl)-9-(trifluoromethyl)-1,2,3,4-tetrahydro-5H-benzofuro[3,2-e][1,4]diazepin-5-one] | 0.0596 nM |
| CC1(O)CCOC(C(F)(F)CN2CCNC(=O)c3oc4ccc(C(F)(F)F)cc4c32)C1 (racemic) [Example 12, 1-(2,2-difluoro-2-(4-hydroxy-4-methyltetrahydro-2H-pyran-2-yl)ethyl)-9-(trifluoromethyl)-1,2,3,4-tetrahydro-5H-benzofuro[3,2-e][1,4]diazepin-5-one] | 0.0388 nM |
| O=C1NCCN(CC(F)(F)C2COCCO2)c2c1oc1ccc(C(F)(F)F)cc21 (racemic) [Example 56] | 0.0723 nM |
| [2H]C1(O)CCC(CCN2CCNC(=O)c3oc4ccc(C(F)(F)F)cc4c32)CC1 (relative stereo) [Example 91] | 0.198 nM |
| O=C1NCCN(CC(F)(F)C2CC(CO)CCO2)c2c1oc1ccc(C(F)(F)F)cc21 (single isomer, unassigned) [Example 14] | 0.0334 nM |
| O=C1NCCN(CC(F)(F)C2CC(CO)CCO2)c2c1oc1ccc(C(F)(F)F)cc21 (single isomer, unassigned) [Example 15] | 0.0289 nM |
